Assay results reported in ChEMBL document CHEMBL3885861, “Open TG-GATES”.

Species: Rattus norvegicus
Experiment: Open TG-GATES - Regimen: Daily Repeat
Type: toxicity, organism-based, Sprague-Dawley
Design: regimen Daily Repeat, gender Male, age 6 weeks
Details: in vivo, po, 75 mg/kg, […], route gavage, dose level High; for KIDNEY_L / KIDNEY_R / KIDNEY_TOTAL: tissue Kidney; for LIVER: tissue Liver; for A/G / ALP / ALT / AST / BUN / CRE / Ca / Cl / DBIL / GLC / IP / K / LDH / Na / PL / RALB / TBIL / TC / TG / TP / gamma-GTP: tissue Plasma

NC1=NC(=O)C(c2ccccc2)O1 (stereo unspecified) [PEMOLINE]
Lym (tissue Blood, time 28 day): 79.4%
MCH (tissue Blood, time 28 day): 20.8 pg
MCHC (tissue Blood, time 28 day): 35.6%
MCV (tissue Blood, time 28 day): 58.5 fL
Mono (tissue Blood, time 28 day): 2.8%
Neu (tissue Blood, time 28 day): 16.2%
PT (tissue Blood, time 28 day): 12.6 s
Plat (tissue Blood, time 28 day): 90.5 x10_4/uL
RBC (tissue Blood, time 28 day): 755.2 x10_4/ul
Ret (tissue Blood, time 28 day): 2.8%
WBC (tissue Blood, time 28 day): 90.3 x10_2/uL
KIDNEY_L (time 7 day): 1.1 g
KIDNEY_R (time 7 day): 1.1 g
KIDNEY_TOTAL (time 7 day): 2.1 g
KIDNEY_L (time 14 day): 1.3 g
KIDNEY_R (time 14 day): 1.3 g
KIDNEY_TOTAL (time 14 day): 2.6 g
KIDNEY_L (time 28 day): 1.5 g
KIDNEY_R (time 28 day): 1.4 g
KIDNEY_TOTAL (time 28 day): 2.9 g
LIVER (time 7 day): 10.9 g
LIVER (time 14 day): 13.8 g
LIVER (time 28 day): 16.2 g
A/G (time 7 day): 0.9
ALP (time 7 day): 1601.8 IU/L
ALT (time 7 day): 44 IU/L
AST (time 7 day): 83.2 IU/L
BUN (time 7 day): 15 mg/dL
CRE (time 7 day): 0.2 mg/dL
Ca (time 7 day): 10.6 mg/dL
Cl (time 7 day): 105.8 meq/L
DBIL (time 7 day): 0.015 mg/dL
GLC (time 7 day): 174.8 mg/dL
IP (time 7 day): 7.7 mg/dL
K (time 7 day): 4.4 meq/L
LDH (time 7 day): 65 IU/L
Na (time 7 day): 142.5 meq/L
PL (time 7 day): 128.2 mg/dL
RALB (time 7 day): 2.6 g/dL
TBIL (time 7 day): 0.025 mg/dL
TC (time 7 day): 65.8 mg/dL
TG (time 7 day): 65.5 mg/dL
TP (time 7 day): 5.6 g/dL
gamma-GTP (time 7 day): 1 IU/L
A/G (time 14 day): 0.8
ALP (time 14 day): 1468 IU/L
ALT (time 14 day): 39 IU/L
AST (time 14 day): 79.8 IU/L
BUN (time 14 day): 14.8 mg/dL
CRE (time 14 day): 0.2 mg/dL
Ca (time 14 day): 11.1 mg/dL
Cl (time 14 day): 106 meq/L
DBIL (time 14 day): 0.012 mg/dL
GLC (time 14 day): 176.2 mg/dL
IP (time 14 day): 8.1 mg/dL
K (time 14 day): 4 meq/L
LDH (time 14 day): 79.2 IU/L
Na (time 14 day): 143.4 meq/L
PL (time 14 day): 135 mg/dL
RALB (time 14 day): 2.7 g/dL
TBIL (time 14 day): 0.022 mg/dL
TC (time 14 day): 69.2 mg/dL
TG (time 14 day): 86.8 mg/dL
TP (time 14 day): 5.9 g/dL
gamma-GTP (time 14 day): 1 IU/L
A/G (time 28 day): 0.8
ALP (time 28 day): 1096 IU/L
ALT (time 28 day): 44.6 IU/L
AST (time 28 day): 77.6 IU/L
BUN (time 28 day): 16.4 mg/dL
CRE (time 28 day): 0.2 mg/dL
Ca (time 28 day): 11.3 mg/dL
Cl (time 28 day): 105 meq/L
DBIL (time 28 day): 0.024 mg/dL
GLC (time 28 day): 179.2 mg/dL
IP (time 28 day): 7.6 mg/dL
K (time 28 day): 4 meq/L
LDH (time 28 day): 81.4 IU/L
Na (time 28 day): 143.6 meq/L
PL (time 28 day): 126.8 mg/dL
RALB (time 28 day): 2.8 g/dL
TBIL (time 28 day): 0.034 mg/dL
TC (time 28 day): 59 mg/dL
TG (time 28 day): 132 mg/dL
TP (time 28 day): 6.2 g/dL
gamma-GTP (time 28 day): 1 IU/L
